Results on 43 compounds are retold here after patent US20110312941A1, “1,4-DISUBSTITUTED PIPERIDINES AS VASOPRESSIN RECEPTOR VIA ANTAGONISTS” (VANTIA LIMITED, priority 2009, published 2011).

This assay deals with T1, cloned human V1a receptor (Homo sapiens, UniProt P37288).
T1 construct: host or cells: human brain astrocytoma 1321N1 cells
The assay can be described thus: in vitro functional calcium mobilisation assay (FLIPR), antagonist activity, 1321N1 cells, 250 pM AVP. The class given is cell-based. The note with it: functional pKi derived from pIC50 (Equation 1), FLIPR Ca2+ mobilisation, 1321N1 cells expressing cloned human V1a receptor, read-out: Mean fpKi (Human V1a) (converted). As for the experimental part: The primary assay which may be used to determine the ability of the compounds of formula (1) to inhibit the vasopressin V1a receptor is an in vitro functional calcium mobilisation assay (FLIPR) that measures antagonist activity at a cloned human V1a receptor. The assay is described below.
The antagonist activity of compounds of formula (1) were determined in a Calcium (Ca2+) mobilisation assay using whole cells (human brain astrocytoma 1321N1 cells, ex Perkin Elmer) genetically modified to stably express a cloned human V1a receptor. Dose response curves were determined by displacement of a single concentration of agonist (250 pM AVP, ex Sigma) with increasing concentrations of compound. A pIC50 value is determined by non-linear regression to a 4-parameter logistic equation and a functional pKi (fpKi) derived using Equation 1.
where A=agonist single conc, and A50=the agonist EC50.
In general terms: A change in cytosolic calcium serves as a functional read-out for many receptors and channels.

T1 sequence (P37288 whole entry): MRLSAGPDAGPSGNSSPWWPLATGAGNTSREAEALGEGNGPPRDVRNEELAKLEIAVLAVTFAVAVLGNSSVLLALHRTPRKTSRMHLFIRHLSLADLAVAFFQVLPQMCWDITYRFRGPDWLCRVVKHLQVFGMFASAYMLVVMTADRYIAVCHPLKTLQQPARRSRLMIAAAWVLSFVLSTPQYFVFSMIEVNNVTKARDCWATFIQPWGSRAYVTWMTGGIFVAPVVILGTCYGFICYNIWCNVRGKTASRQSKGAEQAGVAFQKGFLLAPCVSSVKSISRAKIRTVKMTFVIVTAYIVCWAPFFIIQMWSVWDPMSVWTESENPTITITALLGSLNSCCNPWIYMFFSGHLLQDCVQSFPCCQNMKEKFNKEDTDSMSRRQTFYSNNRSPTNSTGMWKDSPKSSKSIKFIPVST

`Cc1ccc(N2CCC(C(=O)N3CCc4nc(N5CCOCC5)[nH]c4-c4cc(C)ccc43)CC2)nc1` [Example 1, (9-Methyl-2-morpholin-4-yl-4,5-dihydro-1H-1,3,6-triaza-benzo[e]azulen-6-yl)-(5′-methyl-3,4,5,6-tetrahydro-2H-[1,2′]bipyridinyl-4-yl)-methanone]: the Ki is 0.977 nM.
For the compound `Cc1ccc2c(c1)-c1[nH]c(N3CCOCC3)nc1CCN2C(=O)C1CCN(c2ncccc2C)CC1` [Example 2, (9-Methyl-2-morpholin-4-yl-4,5-dihydro-1H-1,3,6-triaza-benzo[e]azulen-6-yl)-(3′-methyl-3,4,5,6-tetrahydro-2H-[1,2′]bipyridinyl-4-yl)-methanone], the Ki was 1.45 nM.
As for `COc1cccnc1N1CCC(C(=O)N2CCc3nc(N4CCOCC4)[nH]c3-c3cc(C)ccc32)CC1` [Example 3, (3′-Methoxy-3,4,5,6-tetrahydro-2H-[1,2′]bipyridinyl-4-yl)-(9-methyl-2-morpholin-4-yl-4,5-dihydro-1H-1,3,6-triaza-benzo[e]azulen-6-yl)-methanone], the Ki is 0.977 nM.
Turning to `Cc1ccc2c(c1)-c1[nH]c(N3CCOCC3)nc1CCN2C(=O)C1CCN(c2ccc(C)nc2)CC1` [Example 4, (9-Methyl-2-morpholin-4-yl-4,5-dihydro-1H-1,3,6-triaza-benzo[e]azulen-6-yl)-(6′-methyl-3,4,5,6-tetrahydro-2H-[1,3′]bipyridinyl-4-yl)-methanone], the Ki is 1.48 nM.
For `Cc1cccc(N2CCC(C(=O)N3CCc4nc(N5CCOCC5)[nH]c4-c4cc(F)ccc43)CC2)n1` [Example 5, (9-Fluoro-2-morpholin-4-yl-4,5-dihydro-1H-1,3,6-triaza-benzo[e]azulen-6-yl)-(6′-methyl-3,4,5,6-tetrahydro-2H-[1,2′]bipyridinyl-4-yl)-methanone], the Ki was 1.78 nM.
Take `Cc1nc2c([nH]1)-c1ccccc1N(C(=O)C1CCN(c3ncccn3)CC1)CC2` [Example 6]: the Ki is 912 nM.
Next, `Cc1nc2c([nH]1)-c1cc(Cl)ccc1N(C(=O)C1CCN(c3ncccn3)CC1)CC2` [Example 7]: 49 nM; `Cc1nc2c([nH]1)-c1ccccc1N(C(=O)C1CCN(c3ccccn3)CC1)CC2` [Example 8]: 151 nM; `O=C(C1CCN(c2ccccn2)CC1)N1CCc2nc(N3CCOCC3)[nH]c2-c2ccccc21` [Example 9]: 18.2 nM.
Take `Cc1cccnc1N1CCC(C(=O)N2CCc3nc(N4CCOCC4)[nH]c3-c3ccccc32)CC1` [Example 10]: the Ki is 5.01 nM.
On to `Cc1ccnc(N2CCC(C(=O)N3CCc4nc(N5CCOCC5)[nH]c4-c4ccccc43)CC2)c1` [Example 11], for which the Ki is 3.72 nM.
To `Cc1ccc(N2CCC(C(=O)N3CCc4nc(N5CCOCC5)[nH]c4-c4ccccc43)CC2)nc1` [Example 12] belongs 2.14 nM.
Next, `O=C(C1CCN(c2ccccn2)CC1)N1CCc2nc(N3CCOCC3)[nH]c2-c2cc(F)ccc21` [Example 13]: 7.94 nM; `Cc1cccnc1N1CCC(C(=O)N2CCc3nc(N4CCOCC4)[nH]c3-c3cc(F)ccc32)CC1` [Example 14]: 2.51 nM; `Cc1ccnc(N2CCC(C(=O)N3CCc4nc(N5CCOCC5)[nH]c4-c4cc(F)ccc43)CC2)c1` [Example 15]: 1.95 nM.
In the case of `Cc1ccc(N2CCC(C(=O)N3CCc4nc(N5CCOCC5)[nH]c4-c4cc(F)ccc43)CC2)nc1` [Example 16], the Ki was 2.95 nM.
In the case of `CCc1nc2c([nH]1)-c1cc(C)ccc1N(C(=O)C1CCN(c3ncccc3C)CC1)CC2` [Example 17], the Ki was 5.01 nM.
Turning to `CCc1nc2c([nH]1)-c1cc(C)ccc1N(C(=O)C1CCN(c3cc(C)ccn3)CC1)CC2` [Example 18], the Ki was 2.29 nM.
With `CCc1nc2c([nH]1)-c1cc(C)ccc1N(C(=O)C1CCN(c3cc(C)ccn3)CC1)CC2` [Example 19], the Ki is 2.34 nM.
Take `CCCc1nc2c([nH]1)-c1cc(C)ccc1N(C(=O)C1CCN(c3ccccn3)CC1)CC2` [Example 20]: the Ki is 12.3 nM.
For `CCCc1nc2c([nH]1)-c1cc(C)ccc1N(C(=O)C1CCN(c3ncccc3C)CC1)CC2` [Example 21], the Ki is 4.47 nM.
Consider `CCCc1nc2c([nH]1)-c1cc(C)ccc1N(C(=O)C1CCN(c3cc(C)ccn3)CC1)CC2` [Example 22], for which the Ki is 2.04 nM.
As to `CCCc1nc2c([nH]1)-c1cc(C)ccc1N(C(=O)C1CCN(c3ccc(C)cn3)CC1)CC2` [Example 23], the Ki was 2.14 nM.
Take `Cc1ccc2c(c1)-c1[nH]c(C3CC3)nc1CCN2C(=O)C1CCN(c2ccccn2)CC1` [Example 24]: the Ki is 8.71 nM.
`Cc1ccc(N2CCC(C(=O)N3CCc4nc(C5CC5)[nH]c4-c4cc(C)ccc43)CC2)nc1` [Example 25]: the Ki is 1.51 nM.
Regarding `CCCCc1nc2c([nH]1)CCN(C(=O)C1CCN(c3ccccn3)CC1)c1ccc(C)cc1-2` [Example 26], the Ki is 18.2 nM.
As to `CCCCc1nc2c([nH]1)CCN(C(=O)C1CCN(c3ccc(C)cn3)CC1)c1ccc(C)cc1-2` [Example 27], the Ki is 4.47 nM.
Take `Cc1ccc2c(c1)-c1nc(CC(C)C)[nH]c1CCN2C(=O)C1CCN(c2ccccn2)CC1` [Example 28]: the Ki was 13.5 nM.
In the case of `Cc1ccc(N2CCC(C(=O)N3CCc4[nH]c(CC(C)C)nc4-c4cc(C)ccc43)CC2)nc1` [Example 29], the Ki is 2.69 nM.
Next, `Cc1ccc(N2CCC(C(=O)N3CCc4nc(N5CCN(C)CC5)[nH]c4-c4cc(C)ccc43)CC2)nc1` [Example 30]: 1.78 nM; `Cc1ccc2c(c1)-c1[nH]c(N3CCOCC3)nc1CCN2C(=O)C1CCN(c2ccccn2)CC1` [Example 31]: 3.8 nM.
`Cc1ccnc(N2CCC(C(=O)N3CCc4nc(N5CCOCC5)[nH]c4-c4cc(C)ccc43)CC2)c1` [Example 32]: the Ki is 1.58 nM.
As for `COc1ccnc(N2CCC(C(=O)N3CCc4nc(N5CCOCC5)[nH]c4-c4cc(C)ccc43)CC2)c1` [Example 33], the Ki was 0.977 nM.
As for `COc1ccc(N2CCC(C(=O)N3CCc4nc(N5CCOCC5)[nH]c4-c4cc(C)ccc43)CC2)nc1` [Example 34], the Ki was 2.69 nM.
To `Cc1ccc2c(c1)-c1[nH]c(N3CCOCC3)nc1CCN2C(=O)C1CCN(c2ccc(C(F)(F)F)cn2)CC1` [Example 35] belongs 7.08 nM; to `Cc1ccc2c(c1)-c1[nH]c(N3CCOCC3)nc1CCN2C(=O)C1CCN(c2ccc(C#N)cn2)CC1` [Example 36], 97.7 nM.
Turning to `Cc1ccc2c(c1)-c1[nH]c(C3CCOCC3)nc1CCN2C(=O)C1CCN(c2ncccc2C)CC1` [Example 37], the Ki is 4.37 nM.
Turning to `Cc1ccnc(N2CCC(C(=O)N3CCc4nc(C5CCOCC5)[nH]c4-c4cc(C)ccc43)CC2)c1` [Example 38], the Ki is 2.24 nM.
Next, `Cc1ccc(N2CCC(C(=O)N3CCc4nc(C5CCOCC5)[nH]c4-c4cc(C)ccc43)CC2)nc1` [Example 39]: 2 nM; `COc1cccnc1N1CCC(C(=O)N2CCc3nc(C4CCOCC4)[nH]c3-c3cc(C)ccc32)CC1` [Example 40]: 1.26 nM; `COc1ccnc(N2CCC(C(=O)N3CCc4nc(C5CCOCC5)[nH]c4-c4cc(C)ccc43)CC2)c1` [Example 41]: 2.34 nM.
Take `COc1ccc(N2CCC(C(=O)N3CCc4nc(C5CCOCC5)[nH]c4-c4cc(C)ccc43)CC2)nc1` [Example 42]: the Ki was 5.62 nM.
Regarding `Cc1ccc(N2CCC(C(=O)N3CCc4nc(N5CCCC5)[nH]c4-c4cc(C)ccc43)CC2)nc1` [Example 43], the Ki was 7.59 nM.
